Test results published in patent EP0643964A2 (priority 1993, dated 1995).
Where “and” joins values, the source holds several entries; their conditions need not be identical. Equal entries are not always repeated.

What was measured:
[1] = target: pseudocholines-terase (Homo sapiens, UniProt P06276); settings: cited from earlier work
[2] = in vivo; cited from earlier work
[3] = global anesthesia by intravenous route; one death in more than 6200 patients; cited from earlier work
[4] = system: M3 tumor; assay: M3 transplanted mice, tumor area (lidocaine and epidoxorrubicine); assay type: in vivo
[5] = system: Giardia lamblia; assay: Patients with malabsorption syndrome (MAS) caused by Giardia lamblia; assay type: in vivo, human; settings: Volunteer # 1, 7 days of treatment; recurrence one month later
Description: Volunteer # 1: Type II MAS with positive isolation of Giardia lamblia in duodenal washings and confirmation of the disease by histopathology. […] One month later, patient 1 presented symptoms and signs of recurrence of the disease, with positive isolation of parasites in feces.
Volunteer # 2: with diffuse abdominal pain, loss of body weight and steatorrhea.

[6] = system: herpes simplex; assay: Evolution of recidivant periorificial herpes simplex infection in volunteers; assay type: in vivo, human
Procedure: Patients were divided into 3 groups: one of the groups (n=4) received acyclovir by oral route and topical applications of the same drug. […] Experiments began with the appearance of the next episode of herpes, just in the moment when vesicles appeared.
All these patients were controlled monthly during the following 4 months. During this time, group A patients presented episodes with a pattern similar to that they had before the experiment was performed. […] The remaining two presented an episode of herpes 2.8 and 3.3 months later.

[7] = herpes simplex episode, ACV oral+topical, lidocaine 5 ml 2% i.v. twice a day 2 days

Sequence of pseudocholines-terase (P06276 29-602, species assumed): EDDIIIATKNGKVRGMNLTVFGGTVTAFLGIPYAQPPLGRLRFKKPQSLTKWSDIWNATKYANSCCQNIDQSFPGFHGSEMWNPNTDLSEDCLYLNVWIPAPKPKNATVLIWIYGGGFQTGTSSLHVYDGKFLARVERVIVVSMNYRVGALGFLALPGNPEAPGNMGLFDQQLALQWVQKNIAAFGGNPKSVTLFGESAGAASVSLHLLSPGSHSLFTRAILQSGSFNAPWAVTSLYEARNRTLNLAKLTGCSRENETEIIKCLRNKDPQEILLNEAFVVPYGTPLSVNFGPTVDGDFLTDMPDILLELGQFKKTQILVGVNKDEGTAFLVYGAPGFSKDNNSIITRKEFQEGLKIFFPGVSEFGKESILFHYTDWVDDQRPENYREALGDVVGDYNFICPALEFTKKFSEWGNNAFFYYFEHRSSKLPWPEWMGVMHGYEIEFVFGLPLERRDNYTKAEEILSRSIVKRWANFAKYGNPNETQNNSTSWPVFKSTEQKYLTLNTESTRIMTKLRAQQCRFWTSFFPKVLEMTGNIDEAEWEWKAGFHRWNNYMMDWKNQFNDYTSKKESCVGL

CCN(CC)CCOC(=O)c1ccc(N)cc1 [procaine]
cleavage rate ([1]; hydrolysis in blood plasma and liver): 20 mg. per minute
half life [2]: about 0.7 minutes
deaths [3]: less than 0.01%

CCCCNc1ccc(C(=O)OCCN(C)C)cc1 [tetracaine]
velocity of cleavage relative to procaine [1]: about 5 times more slowly than procaine

COc1cccc2c1C(=O)c1c(O)c3c(c(O)c1C2=O)C[C@@](O)(C(=O)CO)C[C@@H]3O[C@H]1C[C@H](N)[C@@H](O)[C@H](C)O1 [epidoxorrubicine]
Area (tumor) ([4]; day 7 p-t (day 0), lidocaine 0.1 ml 0.05% every 7 days, epidoxorrubicine 0.125 ml 0.2% every 7 days, combination: lidocaine 2 days after epidoxorrubicine): 0.46
Area (tumor) ([4]; day 10 p-t, regimens as Table 5 footnotes, saline control 0.92): 0.90
I/Ø: Percentual increment over tumor in day 0 (day 7 p-t) ([4]; day 10 p-t, saline control 103.47): 95.65%
Area (tumor) ([4]; day 12 p-t, regimens as Table 5 footnotes, saline control 1.56): 1.56
I/Ø: Percentual increment over tumor in day 0 (day 7 p-t) ([4]; day 12 p-t, saline control 245.61): 238.04%
Area (tumor) ([4]; day 14 p-t, regimens as Table 5 footnotes, saline control 2.06): 2.36
I/Ø: Percentual increment over tumor in day 0 (day 7 p-t) ([4]; day 14 p-t, saline control 357.57): 413.04%
I/Ø: Percentual increment over tumor in day 0 (day 7 p-t) ([4]; day 16 p-t, saline control 516.74): 316.30%
Area (tumor) ([4]; day 18 p-t, regimens as Table 5 footnotes, saline control 3.61): 2.41
I/Ø: Percentual increment over tumor in day 0 (day 7 p-t) ([4]; day 18 p-t, saline control 701.39): 422.83%
Area (tumor) ([4]; day 21 p-t, regimens as Table 5 footnotes, saline control 4.61): 3.39
I/Ø: Percentual increment over tumor in day 0 (day 7 p-t) ([4]; day 21 p-t, saline control 923.86): 637.68%
Area (tumor) ([4]; day 23 p-t, regimens as Table 5 footnotes, saline control 5.49): 3.57
I/Ø: Percentual increment over tumor in day 0 (day 7 p-t) ([4]; day 23 p-t, saline control 1119.69): 676.81%
Area (tumor) ([4]; day 25 p-t, regimens as Table 5 footnotes, saline control 6.24): 4.16
I/Ø: Percentual increment over tumor in day 0 (day 7 p-t) ([4]; day 25 p-t, saline control 1286.33): 804.35%
Area (tumor) ([4]; mouse, in vivo): 1.92

Cc1ncc([N+](=O)[O-])n1CCO [metronidazole]
Clinical evolution [5]: good evolution

Nc1nc2c(ncn2COCCO)c(=O)[nH]1 [ACV, acyclovir]
Duration of lesions [6, 7]: 7 days
Duration of symptoms [6, 7]: 4 days
FIRST EPISODE AFTER TREATMENT ([6]; individual patients, followed monthly for 4 months): 31 d. and 29 d d. and 33 d d. and 40 d.
